In patent publication US20250122219A1 (priority 2023, published 2025) one finds EC50 and CC50 data, which are given here for 18 molecules.

Series [1] deals with HIV-1 (IIIB). The series can be described thus: Antiviral assay in MT-4 cells. The series is classed as cell-based. Put shortly:
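Read-out: CellTiter-Glo luminescence after 5 days at 37 °C, reflecting survival of MT-4 cells infected with HIV-1 IIIB (1:250 fresh stock dilution) versus mock-infected. Compounds serially diluted into RPMI with 10% FBS; AZT at 5 μM served as positive control.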

Series [2] is described as follows: Cytotoxicity assay in MT-4 cells. In kind it is cell-based. The settings on record: human; uninfected MT-4 cells, 5 days incubation, Cell Titer Glo; read-out: MT4 CC50. In outline: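 Viability read by Cell Titer Glo luminescence after 5 days at 37 °C. MT-4 cells, not infected, in complete RPMI (10% FBS), received compound dilution series. Base cytotoxicity set with […] puromycin.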
On the technique in general: In ATP-based viability assays light output follows the ATP content of the culture.

Where [3] appears, read: Human immunodeficiency virus 1, MT4, 120 h, HIV-1 IIIB in MT-4 cells, 5 days incubation, Cell Titer Glo, read-out: MT4 EC50.
Setting [4] is: Human immunodeficiency virus 1, IIIB, MT4, 120 h, read-out: MT4 EC50 (nM).

Read-outs that look alike come from different tables or passages of the source. Where only a bound is given, the exact number is not on record here.

The EC50 is the concentration giving half of the maximal effect. Usually CC50 stands for the concentration at which the toxic effect on the cells reaches its halfway point. In the case of `COC1=NO[C@@]2(CC[C@H](C)N3C[C@H]2n2cc(C(=O)NCc4ccc(F)cc4F)c(=O)c(OC(=O)CCCC(C)C)c2C3=O)C1` [Example 60, (3′S,5S,7′R)-10′-((2,4-difluorobenzyl)carbamoyl)-3-methoxy-3′-methyl-1′,11′-dioxo-1′,4′,5′,11′-tetrahydro-3′H,4H,7′H-spiro[isoxazole-5,6′-[2,7]methanopyrido[1,2-a][1,4]diazonin]-12′-yl 5-methylhexanoate], in series [1] (setting [3]), the EC50 was determined as 0.539 nM. The CC50 at 5 days in series [2] is 21000 nM.

With `CC1=NO[C@@]2(CC[C@H](C)N3C[C@H]2n2cc(C(=O)NCc4ccc(F)cc4F)c(=O)c(OC(=O)CCCC(C)C)c2C3=O)C1` [Example 61, (3′S,5S,7′R)-10′-((2,4-difluorobenzyl)carbamoyl)-3,3′-dimethyl-1′,11′-dioxo-1′,4′,5′,11′-tetrahydro-3′H,4H,7′H-spiro[isoxazole-5,6′-[2,7]methanopyrido[1,2-a][1,4]diazonin]-12′-yl 5-methylhexanoate], the EC50 in series [1] (setting [3]) turned out to be 0.733 nM. For the same molecule, in series [2], the CC50 at 5 days worked out at 20600 nM.

`COC1=NO[C@@]2(CC[C@H](C)N3C[C@H]2n2cc(C(=O)NCc4ccc(F)cc4F)c(=O)c(OC(=O)CCCCCC(C)C)c2C3=O)C1` [Example 64, (3′S,5S,7′R)-10′-((2,4-difluorobenzyl)carbamoyl)-3-methoxy-3′-methyl-1′,11′-dioxo-1′,4′,5′,11′-tetrahydro-3′H,4H,7′H-spiro[isoxazole-5,6′-[2,7]methanopyrido[1,2-a][1,4]diazonin]-12′-yl 7-methyloctanoate]: in series [1] (setting [3]), the EC50 amounted to 2.48 nM. Also, the CC50 at 5 days in series [2] turned out to be 38100 nM.

For `CC1=NO[C@@]2(CC[C@H](C)N3C[C@H]2n2cc(C(=O)NCc4ccc(F)cc4F)c(=O)c(OC(=O)CCCCCC(C)C)c2C3=O)C1` [Example 65, (3′S,5S,7′R)-10′-((2,4-difluorobenzyl)carbamoyl)-3,3′-dimethyl-1′,11′-dioxo-1′,4′,5′,11′-tetrahydro-3′H,4H,7′H-spiro[isoxazole-5,6′-[2,7]methanopyrido[1,2-a][1,4]diazonin]-12′-yl 7-methyloctanoate], the EC50 in series [1] (setting [3]) is 3.01 nM. Also, the CC50 at 5 days in series [2] amounted to 21800 nM.

With `COC1=NO[C@@]2(CC[C@H](C)N3C[C@H]2n2cc(C(=O)NCc4ccc(F)cc4F)c(=O)c(OC(=O)CCCCCCC(C)C)c2C3=O)C1` [Example 66, (3′S,5S,7′R)-10′-((2,4-difluorobenzyl)carbamoyl)-3-methoxy-3′-methyl-1′,11′-dioxo-1′,4′,5′,11′-tetrahydro-3′H,4H,7′H-spiro[isoxazole-5,6′-[2,7]methanopyrido[1,2-a][1,4]diazonin]-12′-yl 8-methylnonanoate], in series [1] (setting [3]), the EC50 stood at 0.316 nM. In addition, the CC50 at 5 days in series [2] worked out at 22300 nM.

As for `CC1=NO[C@@]2(CC[C@H](C)N3C[C@H]2n2cc(C(=O)NCc4ccc(F)cc4F)c(=O)c(OC(=O)CCCCCCC(C)C)c2C3=O)C1` [Example 67, (3′S,5S,7′R)-10′-((2,4-difluorobenzyl)carbamoyl)-3,3′-dimethyl-1′,11′-dioxo-1′,4′,5′,11′-tetrahydro-3′H,4H,7′H-spiro[isoxazole-5,6′-[2,7]methanopyrido[1,2-a][1,4]diazonin]-12′-yl 8-methylnonanoate], the EC50 in series [1] (setting [3]) was determined as 0.196 nM. In series [2], the CC50 at 5 days was found to be 18900 nM.

Take `CC/C=C\C/C=C\C/C=C\C/C=C\C/C=C\CCCC(=O)Oc1c2n(cc(C(=O)NCc3ccc(F)cc3F)c1=O)[C@@H]1CN(C2=O)[C@@H](C)CC[C@]12CC(C)=NO2` [Example 68, (3′S,5S,7′R)-10′-((2,4-difluorobenzyl)carbamoyl)-3,3′-dimethyl-1′,11′-dioxo-1′,4′,5′,11′-tetrahydro-3′H,4H,7′H-spiro[isoxazole-5,6′-[2,7]methanopyrido[1,2-a][1,4]diazonin]-12′-yl (5Z,8Z,11Z,14Z,17Z)-icosa-5,8,11,14,17-pentaenoate]: in series [1] (setting [3]), the EC50 was found to be 1.09 nM. The CC50 at 5 days in series [2] is 16500 nM.

Take `CC/C=C\C/C=C\C/C=C\C/C=C\C/C=C\CCCC(=O)Oc1c2n(cc(C(=O)NCc3ccc(F)cc3F)c1=O)[C@@H]1CN(C2=O)[C@@H](C)CC[C@]12CC(OC)=NO2` [Example 69, (3′S,5S,7′R)-10′-((2,4-difluorobenzyl)carbamoyl)-3-methoxy-3′-methyl-1′,11′-dioxo-1′,4′,5′,11′-tetrahydro-3′H,4H,7′H-spiro[isoxazole-5,6′-[2,7]methanopyrido[1,2-a][1,4]diazonin]-12′-yl (5Z,8Z,11Z,14Z,17Z)-icosa-5,8,11,14,17-pentaenoate]: the EC50 in series [1] (setting [3]) turned out to be 0.54 nM. In addition, in series [2], the CC50 at 5 days amounted to 42200 nM.

`COCCCCCC(=O)Oc1c2n(cc(C(=O)NCc3ccc(F)cc3F)c1=O)[C@@H]1CN(C2=O)[C@@H](C)CC[C@]12CC(OC)=NO2` [Example 70, (3′S,5S,7′R)-10′-((2,4-difluorobenzyl)carbamoyl)-3-methoxy-3′-methyl-1′,11′-dioxo-1′,4′,5′,11′-tetrahydro-3′H,4H,7′H-spiro[isoxazole-5,6′-[2,7]methanopyrido[1,2-a][1,4]diazonin]-12′-yl 6-methoxyhexanoate]: the EC50 in series [1] (setting [3]) stood at 1.02 nM. Moreover, in series [2], the CC50 at 5 days was determined as 17600 nM.

As to `COCCCCCC(=O)Oc1c2n(cc(C(=O)NCc3ccc(F)cc3F)c1=O)[C@@H]1CN(C2=O)[C@@H](C)CC[C@]12CC(C)=NO2` [Example 71, (3′S,5S,7′R)-10′-((2,4-difluorobenzyl)carbamoyl)-3,3′-dimethyl-1′,11′-dioxo-1′,4′,5′,11′-tetrahydro-3′H,4H,7′H-spiro[isoxazole-5,6′-[2,7]methanopyrido[1,2-a][1,4]diazonin]-12′-yl 6-methoxyhexanoate], the EC50 in series [1] (setting [3]) is 1.79 nM. Besides, the CC50 at 5 days in series [2] came to 19500 nM.

On to `COC1=NO[C@@]2(CC[C@H](C)N3C[C@H]2n2cc(C(=O)NCc4ccc(F)cc4F)c(=O)c(OC(=O)CCCC(=O)O)c2C3=O)C1` [Example 73, 5-(((3′S,5S,7′R)-10′-((2,4-difluorobenzyl)carbamoyl)-3-methoxy-3′-methyl-1′,11′-dioxo-1′,4′,5′,11′-tetrahydro-3′H,4H,7′H-spiro[isoxazole-5,6′-[2,7]methanopyrido[1,2-a][1,4]diazonin]-12′-yl)oxy)-5-oxopentanoic acid], for which the EC50 in series [1] (setting [3]) was determined as 0.797 nM. Besides, the CC50 at 5 days in series [2] stood at 20200 nM.

As for `CC1=NO[C@@]2(CC[C@H](C)N3C[C@H]2n2cc(C(=O)NCc4ccc(F)cc4F)c(=O)c(OC(=O)/C=C/C(=O)O)c2C3=O)C1` [Example 75, (E)-4-(((3′S,5S,7′R)-10′-((2,4-difluorobenzyl)carbamoyl)-3,3′-dimethyl-1′,11′-dioxo-1′,4′,5′,11′-tetrahydro-3′H,4H,7′H-spiro[isoxazole-5,6′-[2,7]methanopyrido[1,2-a][1,4]diazonin]-12′-yl)oxy)-4-oxobut-2-enoic acid], the EC50 in series [1] (setting [4]) was found to be 1.6 nM. The CC50 at 5 days in series [2] is 16100 nM.

On to `CC1=NO[C@@]2(CC[C@H](C)N3C[C@H]2n2cc(C(=O)NCc4ccc(F)cc4F)c(=O)c(OC(=O)CCCCCCCCCCCCCCCCC(=O)O)c2C3=O)C1` [Example 76, 18-(((3′S,5S,7′R)-10′-((2,4-difluorobenzyl)carbamoyl)-3,3′-dimethyl-1′,11′-dioxo-1′,4′,5′,11′-tetrahydro-3′H,4H,7′H-spiro[isoxazole-5,6′-[2,7]methanopyrido[1,2-a][1,4]diazonin]-12′-yl)oxy)-18-oxooctadecanoic acid], for which the EC50 in series [1] (setting [3]) came out at 0.518 nM. For the same molecule, in series [2], the CC50 at 5 days is 46000 nM.

Regarding `COC1=NO[C@@]2(CC[C@H](C)N3C[C@H]2n2cc(C(=O)NCc4ccc(F)cc4F)c(=O)c(OC(=O)CCCCCCCCCCCCCCCCC(=O)O)c2C3=O)C1` [Example 77, 18-(((3′S,5S,7′R)-10′-((2,4-difluorobenzyl)carbamoyl)-3-methoxy-3′-methyl-1′,11′-dioxo-1′,4′,5′,11′-tetrahydro-3′H,4H,7′H-spiro[isoxazole-5,6′-[2,7]methanopyrido[1,2-a][1,4]diazonin]-12′-yl)oxy)-18-oxooctadecanoic acid], the EC50 in series [1] (setting [3]) is 0.658 nM. The CC50 at 5 days in series [2] was no less than 50000 nM.

Consider `COC(=O)N[C@H](C(=O)Oc1c2n(cc(C(=O)NCc3ccc(F)cc3F)c1=O)[C@@H]1CN(C2=O)[C@@H](C)CC[C@]12CC(OC)=NO2)C(C)C` [Example 80], for which, in series [1] (setting [3]), the EC50 stood at 1.3 nM. For the same molecule, the CC50 at 5 days in series [2] stood at 19800 nM.

`COC(=O)N[C@H](C(=O)Oc1c2n(cc(C(=O)NCc3ccc(F)cc3F)c1=O)[C@@H]1CN(C2=O)[C@@H](C)CC[C@]12CC(C)=NO2)C(C)C` [Example 81]: the EC50 in series [1] (setting [3]) worked out at 1.44 nM. In addition, in series [2], the CC50 at 5 days is 18100 nM.

Consider `COC1=NO[C@@]2(CC[C@H](C)N3C[C@H]2n2cc(C(=O)NCc4ccc(F)cc4F)c(=O)c(OCOC(=O)CCC(C)C)c2C3=O)C1` [Example 82, (((3′S,5S,7′R)-10′-((2,4-difluorobenzyl)carbamoyl)-3-methoxy-3′-methyl-1′,11′-dioxo-1′,4′,5′,11′-tetrahydro-3′H,4H,7′H-spiro[isoxazole-5,6′-[2,7]methanopyrido[1,2-a][1,4]diazonin]-12′-yl)oxy)methyl 4-methylpentanoate], for which, in series [1] (setting [4]), the EC50 was 2.52 nM. Besides, the CC50 at 5 days in series [2] amounted to 17300 nM.

As for `COC1=NO[C@@]2(CC[C@H](C)N3C[C@H]2n2cc(C(=O)NCc4ccc(F)cc4F)c(=O)c(OCOC(C)=O)c2C3=O)C1` [Example 83, (((3′S,5S,7′R)-10′-((2,4-difluorobenzyl)carbamoyl)-3-methoxy-3′-methyl-1′,11′-dioxo-1′,4′,5′,11′-tetrahydro-3′H,4H,7′H-spiro[isoxazole-5,6′-[2,7]methanopyrido[1,2-a][1,4]diazonin]-12′-yl)oxy)methyl acetate], the EC50 in series [1] (setting [3]) worked out at 2.69 nM. Further, in series [2], the CC50 at 5 days amounted to 16000 nM.
